Assay results as given in patent publication EP1388013B1, “COMPOSITIONS AND METHODS FOR THE USE OF FIBRONECTIN FRAGMENTS IN THE DIAGNOSIS OF CANCER” (THE REGENTS OF THE UNIVERSITY OF MICHIGAN, priority 2001, dated 2002).
Entries after “also recorded” stand apart in the source; their conditions may differ. Non-standard residues stand in square brackets, D forms with d. Residues, ends and D or L forms follow the SMILES beside them. No end group written: not given here. hCys = N[C@@H](CCS)C(=O)O

Experiments:
[1] = system: normal human mammary epithelial cells; assay: SU-ECM invasion assay, normal mammary epithelial cells; assay type: cell-based; conditions: 10% FCS, 100 ng per ml PHSRN, Figure 3B
Experimental: (§1) Adult Strongylocentrotus purpuratus sea urchins were obtained from Pacific BioMarine, and their embryos were cultured to the early pluteus stage in artificial sea water at 15°C. SU-ECM were prepared from them by treatment with nonionic detergent and sterilized by dilution in the appropriate media.
(§2) […] When appropriate, purified bovine plasma fibronectin (Sigma, St. Louis, Mo), purified 120 kDa chymotryptic fragment (Gibco BRL), PHSRN or PHSCN peptides (synthesized at the Biomedical Research Core Facilities of the University of Michigan), or GRGDSP or GRGESP peptides (Gibco BRL) were added to the resuspended cells prior to placement of the cells on SU-ECM. In each well of a plate used for an invasion assay, SU-ECM were placed in 0.5 ml of the appropriate medium, and 0.5ml of the resuspended cells dropped on their exterior surfaces. Invasion assays were incubated 1 to 16 hours prior to scoring. If some circumstances, invasion assays were fixed in phosphate-buffered saline (PBS) with 2% formaldehyde for 5 minutes at room temperature, then rinsed into PBS.
(§3) Invasion assays were coded and scored blindly by microscopic examination under phase contrast at 200- and 400-fold magnification. Each cell contacting an SU-ECM was scored for its position relative to the exterior or interior surfaces. A cell was judged to have invaded if it was located on an interior surface below the focal plane passing through the upper surface of the SU-ECM, but above the focal plane passing through its lower surface. The minimum viability of the cells in each assay was always ascertained at the time of assay by determining the fraction of spread, adherent cells on the bottom of each well scored.
(§4) An invasion frequency is defined as the fraction of cells in contact with basement membranes which were located in their interiors at the time of assay. […] Invasion frequencies were determined multiple times for each cell type assayed. For each type of cell assayed the mean and standard deviation of the invasion frequencies were calculated. […]

[2] = system: normal human prostate epithelial cells; assay: SU-ECM invasion assay, normal prostate epithelial cells; assay type: cell-based; conditions: 10% FCS, 100 ng per ml PHSRN, Figure 4B
Experimental: as §1, §2, §3, §4

[3] = system: metastatic DU-145 prostate cancer cells; assay: SU-ECM invasion assay, DU-145 cells; assay type: cell-based, human; conditions: for inhibition of serum-induced invasion of DU-145 cells: Figure 4A; for concentration that completely inhibits the invasion of metastatic DU145 cells: Example 10; for concentration that completely (fully) inhibits the invasion of metastatic DU145 cells: Example 11, Figure 7, molar basis; for inhibition of PHSRN-induced invasion of DU-145 cells: serum-free medium, 100 ng per ml PHSRN, Figure 4B; for IC100: Homo sapiens, DU-145, read-out: concentration that completely (fully) inhibits the invasion of metastatic DU145 cells
Experimental: as §1, §2, §3
(§5) An invasion frequency is defined as the fraction of cells in contact with basement membranes which were located in their interiors at the time of assay. Thus, an invasion frequency of 1 denotes invasion by 100% of the cells in contact with basement membranes. Invasion frequencies were determined multiple times for each cell type assayed. For each type of cell assayed the mean and standard deviation of the invasion frequencies were calculated.
(§6) The method of Example 4 is employed, with the addition of varying concentrations of the PHSCN peptide.
(§7) Thus, the procedure in Example 4 provides a method for determining the inhibitory potential of the PHSCN peptide by comparing the number of cell invasions in the presence of the PHSCN peptide, with the number of cell invasions in the absence of the PHSCN peptide.
In this example, in vitro invasion of cancer cells into substrates is inhibited with peptides that have been chemically modified with protecting groups and peptides having protecting groups as well as the modification wherein an L-amino acid has been replaced with the D-isomer. PHSCN peptide, blocked PHSCN peptide, and blocked PHSCN peptide with a D-cysteine instead of the L-isomer, were tested (Figure 4A, 4B).
In this example, in vitro invasion of cancer cells into substrates is inhibited with non-peptide mimetics in comparison with chemically modified peptides (on a molar basis). The peptides of Example 10 (i.e. peptides chemically modified with protecting groups and peptides having protecting groups as well as the modification wherein an L-amino acid has been replaced with the D-isomer) were compared with the non-peptide mimetics DL-N-Acetylhomocysteinethiolactone, Thiobutyrolactone, and Mercaptopropionic acid, in order to investigate the structure activity relationship for invasion inhibition by interaction with the PHSRN-binding pocket of the α5β1 fibronectin receptor (Figure 7)

[4] = system: metastatic SUM-52 PE breast cancer cells; assay: SU-ECM invasion assay, SUM-52 PE cells; assay type: cell-based, human; conditions: for inhibition of serum-induced invasion of SUM-52 PE cells: medium with 5% serum, Figure 3A; for inhibition of PHSRN-induced invasion of SUM-52 PE cells: serum free media, 100 ng per ml PHSRN, Figure 3B
Experimental: as §1
Cells were harvested by rinsing in Hanks balanced salt solution, followed by brief treatment with 0.25% trypsin, 0.02% EDTA, and pelleting and resuspension in the appropriate medium with or without 5% FCS at a density of about 50,000 cells per ml. When appropriate, purified bovine plasma fibronectin (Sigma, St. Louis, Mo), purified 120 kDa chymotryptic fragment (Gibco BRL), PHSRN or PHSCN peptides (synthesized at the Biomedical Research Core Facilities of the University of Michigan), or GRGDSP or GRGESP peptides (Gibco BRL) were added to the resuspended cells prior to placement of the cells on SU-ECM. In each well of a plate used for an invasion assay, SU-ECM were placed in 0.5 ml of the appropriate medium, and 0.5ml of the resuspended cells dropped on their exterior surfaces. Invasion assays were incubated 1 to 16 hours prior to scoring. If some circumstances, invasion assays were fixed in phosphate-buffered saline (PBS) with 2% formaldehyde for 5 minutes at room temperature, then rinsed into PBS.
as §3, §5, §6, §7

neonatal fibroblasts = assay: SU-ECM invasion assay, neonatal fibroblasts; assay type: cell-based, human; conditions: in the presence (10% FCS) or absence of serum; molar concentration equivalent to plasma fibronectin in serum; Figure 9
Text: In one example cells for the invasion assay are harvested by rinsing in Hanks' balanced salt solution, followed by brief treatment with 0.25% trypsin, 0.02% EDTA, and pelleting and resuspension in the appropriate medium with or without 5% FCS at a density of about 50,000 cells per ml. When appropriate, purified bovine plasma fibronectin (from Sigma, St. Louis, Mo), purified 120 kDa chymotryptic fragment (Gibco BRL) or PHSRN peptides (synthesized at the Biomedical Research Core Facilities of the University of Michigan) are added to the resuspended cells prior to placement of the cells on SU-ECM. In each well of a plate used for an invasion assay, SU-ECM were placed in 0.5 ml of the appropriate medium, and 0.5ml of the resuspended cells dropped on their exterior surfaces. Invasion assays were incubated 1 to 16 hours prior to assay. If some circumstances, invasion assays were fixed in phosphate-buffered saline (PBS) with 2% formaldehyde for 5 minutes at room temperature, then rinsed into PBS.
as §3, with “are” for “were”, “is” for “was”
An invasion frequency is defined as the fraction of cells in contact with basement membranes which are located in their interiors at the time of assay. Thus, an invasion frequency of 1 denotes invasion by 100% of the cells in contact with basement membranes. Invasion frequencies are determined multiple times for each cell type assayed. For each type of cell assayed the mean and standard deviation of the invasion frequencies were calculated.
In this example, the invasiveness of neonatal fibroblasts into an SU-ECM invasion substrate is considered. Experiments were performed under serum-free conditions, or in medium with 10% fetal calf serum (FCS). Neither serum-free medium nor medium containing serum supported fibroblast invasion. However, consistent with the induction of metalloproteinase gene transcription by the 120 kDa fragment of plasma fibronectin (pFn) containing the cell-binding domain, the 120 kDa fragment induced fibroblast invasion in the presence or in the absence of serum. […]

[5] = system: rat metastatic prostate carcinoma MatLyLu (MLL) cells; assay: SU-ECM invasion assay, MatLyLu cells; assay type: cell-based; conditions: 10% FCS, Figure 5
Experimental: as §1
[…] When appropriate, purified bovine plasma fibronectin (Sigma, St. Louis, Mo), purified 120 kDa chymotryptic fragment (Gibco BRL), PHSRN or PHSCN peptides (synthesized at the Biomedical Research Core Facilities of the University of Michigan), or GRGDSP or GRGESP peptides (Gibco BRL) were added to the resuspended cells prior to placement of the cells on SU-ECM. […]
Invasion assays were coded and scored blindly by microscopic examination under phase contrast at 200- and 400-fold magnification. Each cell contacting an SU-ECM was scored for its position relative to the exterior or interior surfaces. […] The minimum viability of the cells in each assay was always ascertained at the time of assay by determining the fraction of spread, adherent cells on the bottom of each well scored.
An invasion frequency is defined as the fraction of cells in contact with basement membranes which were located in their interiors at the time of assay. […] Invasion frequencies were determined multiple times for each cell type assayed. […]

[6] = DU145 invasion inhibition, 10% serum

## PHSCN [PHSCN]
[1]; higher concentrations
  inhibition of PHSRN-induced invasion of normal human mammary epithelial cells: almost complete inhibition
[1]; low concentrations
  inhibition of PHSRN-induced invasion of normal human mammary epithelial cells: substantial inhibitory affect
[2]; higher concentrations
  inhibition of PHSRN-induced invasion of normal human prostate epithelial cells: almost complete inhibition
[2]; low concentrations
  inhibition of PHSRN-induced invasion of normal human prostate epithelial cells: substantial inhibitory affect
[3]; 10% serum, relatively high concentrations
  inhibition of serum-induced invasion of DU-145 cells: complete inhibition
[3]; 10% serum, relatively low concentrations
  inhibition of serum-induced invasion of DU-145 cells: substantial inhibitory affect
[3]; medium with 10% serum
  concentration that completely inhibits the invasion of metastatic DU145 cells: 3 ng/mL
  concentration that completely (fully) inhibits the invasion of metastatic DU145 cells: approximately 2 µM
[3]; higher concentrations
  inhibition of PHSRN-induced invasion of DU-145 cells: almost complete inhibition
[3]; low concentrations
  inhibition of PHSRN-induced invasion of DU-145 cells: substantial inhibitory affect
[4]; relatively high concentrations
  inhibition of serum-induced invasion of SUM-52 PE cells: complete inhibition
[4]; relatively low concentrations
  inhibition of serum-induced invasion of SUM-52 PE cells: substantial inhibitory affect
[4]; higher concentrations
  inhibition of PHSRN-induced invasion of SUM-52 PE cells: almost complete inhibition
[4]; low concentrations
  inhibition of PHSRN-induced invasion of SUM-52 PE cells: substantial inhibitory affect

## N=C(N)NCCC[C@H](NC(=O)CN)C(=O)NCC(=O)N[C@@H](CC(=O)O)C(=O)N[C@@H](CO)C(=O)O [GRGDS, reference compound]
Neonatal fibroblasts
  induction of fibroblast invasion of SU-ECM: no detectable activity

## CC(=O)N1CCC[C@H]1C(=O)N[C@@H](Cc1c[nH]cn1)C(=O)N[C@@H](CO)C(=O)N[C@H](CS)C(=O)N[C@@H](CC(N)=O)C(N)=O [Ac-PHS(dC)N-NH2] (Ac-PHS[dC]N-NH2)
[3]; DU145 cells, medium with 10% serum, D-isomer of cysteine substituted
  invasion-inhibitory activity compared with Ac-PHSCN-NH2: further increases the invasion-inhibitory activity; also recorded: further increases very substantially the invasion-inhibitory activity

## NC(=O)C[C@H](NC(=O)[C@H](CCS)NC(=O)[C@H](CO)NC(=O)[C@H](Cc1c[nH]cn1)NC(=O)[C@@H]1CCCN1)C(=O)O [PHS(hC)N] (H-PHS[hCys]N-OH)
[5]; higher concentrations
  inhibition of serum-induced invasion of MLL cells: completely inhibits invasion
[5]; lower concentrations
  inhibition of serum-induced invasion of MLL cells: substantially inhibits invasion

## CC(=O)NC1CCSC1=O (racemic) [DL-N-Acetylhomocysteinethiolactone]
[3]; [6]
  fold less active than blocked PHSCN: about 10 fold
  fold more active than the unblocked PHSCN peptide: about 3 fold
[3]
  IC100: 0.6 µM

## O=C(O)CCS [Mercaptopropionic acid]
[3]; [6]
  times less active in invasion inhibition than thiobutyrolactone: at least 100 times
  times less active than the unblocked PHSCN peptide: ≥ 1500 times
[3]; at any of the concentrations tested, 10% serum
  reduction of DU145 invasion: ≤ 20%

## Ac-PHSCN-NH2 [Ac-PHSCN-NH2]
[3]; medium with 10% serum
  concentration that completely inhibits the invasion of metastatic DU145 cells: approximately 1.3 ng/ml
  concentration that completely (fully) inhibits the invasion of metastatic DU145 cells: approximately 0.06 µM

## O=C1CCCS1 [Thiobutyrolactone]
[3]; [6]
  fold less active than N-acetylhomocysteinethiolactone: 50 fold
  fold less active than blocked PHSCN: about 500 fold
  times less active than the unblocked PHSCN peptide: 15 times
[3]
  IC100: 30 µM
